Consider 21 compounds from PubChem BioAssay AID330 (DTP/NCI, 2004).

Where “and” joins values, the source holds several entries; their conditions need not be identical. Equal entries are not always repeated. Toxic doses and inconclusive results are not listed.

For the experiment, the system named is P388 leukemia ip, CD2F1 mice, survival T/C. The experiment in a line: NCI In Vivo Anticancer Drug Screen. Data for tumor model P388 Leukemia (intraperitoneal) in CD2F1 (CDF1) mice. The following applies: endpoint: median survival time, higher = longer survival. The gist of the method:
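Mice carrying the transplanted tumor received test compound or vehicle. Survival was recorded in each group, and the value is the treated-group measurement divided by that of the vehicle-treated control group.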

Where [1] appears, read: dose: 60.0 mg/kg/injection, schedule: Q01DX005 (ip), vehicle: saline with Tween-80.
The mark [2] stands for this setting: dose: 120.0 mg/kg/injection, schedule: Q01DX005 (ip), vehicle: saline with Tween-80.
Where [3] appears, read: dose: 240.0 mg/kg/injection, schedule: Q01DX005 (ip), vehicle: saline with Tween-80.
Setting [4] is: dose: 100.0 mg/kg/injection, schedule: Q04DX003 (ip), vehicle: Klucel (hydroxypropylcellulose) (HPC).
Setting [5] is: dose: 200.0 mg/kg/injection, schedule: Q04DX003 (ip), vehicle: Klucel (hydroxypropylcellulose) (HPC).
Where [6] appears, read: dose: 400.0 mg/kg/injection, schedule: Q04DX003 (ip), vehicle: Klucel (hydroxypropylcellulose) (HPC).
[7] abbreviates: dose: 50.0 mg/kg/injection, schedule: Q01DX009 (ip), vehicle: saline.
[8] abbreviates: dose: 100.0 mg/kg/injection, schedule: Q01DX009 (ip), vehicle: saline with Tween-80.
Where [9] appears, read: dose: 200.0 mg/kg/injection, schedule: Q01DX009 (ip), vehicle: saline with Tween-80.
Setting [10] is: dose: 50.0 mg/kg/injection, schedule: Q01DX009 (ip), vehicle: Klucel (hydroxypropylcellulose) (HPC).
[11] abbreviates: dose: 100.0 mg/kg/injection, schedule: Q01DX009 (ip), vehicle: Klucel (hydroxypropylcellulose) (HPC).
Where [12] appears, read: dose: 200.0 mg/kg/injection, schedule: Q01DX009 (ip), vehicle: Klucel (hydroxypropylcellulose) (HPC).
[13] abbreviates: dose: 30.0 mg/kg/injection, schedule: Q01DX005 (ip), vehicle: saline with Tween-80.

With `Fc1cccc(NC(=S)SCc2ccc(Cl)c(Cl)c2)c1`, the T/C is 99 % of control (dose: 50.0 mg/kg/injection, schedule: Q01DX009 (ip), vehicle: suspension in saline); 93 % of control (dose: 100.0 mg/kg/injection, schedule: Q01DX009 (ip), vehicle: suspension in saline); 109 % of control (dose: 200.0 mg/kg/injection, schedule: Q01DX009 (ip), vehicle: suspension in saline).

Take `Cc1cc[n+](C2C(=O)c3ccccc3C(=O)C2Nc2cc(Cl)ccc2Cl)cc1` (stereo not given): the T/C is 106 % of control under setting [1], 108 % of control under setting [2] and 105 % of control under setting [3].

As for `COc1ccc(/C(C#N)=C\c2ccc(N(C)C)cc2)cc1`, the T/C was 108 % of control (dose: 50.0 mg/kg/injection, schedule: Q04DX003 (ip), vehicle: Klucel (hydroxypropylcellulose) (HPC)); 105 % of control under setting [4]; 106 % of control under setting [5]; 105 % of control under setting [6].

Turning to `Cc1ncc(/C=N/O)n1Cc1ccccc1`, the T/C is, setting by setting: under setting [1], 99 % of control; under setting [2], 93 % of control; under setting [3], 90 % of control.

On to `COc1cc2c(c(OC)c1OC)-c1ccc(OC)c(=O)cc1[C@@H](NC(=O)c1ccccc1)CC2`, for which the T/C was 156 % of control (dose: 0.5 mg/kg/injection, schedule: Q01DX009 (ip), vehicle: Klucel (hydroxypropylcellulose) (HPC)); 121 % of control (dose: 0.5 mg/kg/injection, schedule: Q01DX009 (ip), vehicle: saline with Tween-80); 154 % of control (dose: 0.63 mg/kg/injection, schedule: Q01DX009 (ip), vehicle: distilled water + Tween-80); 182 % of control (dose: 1.0 mg/kg/injection, schedule: Q01DX009 (ip), vehicle: Klucel (hydroxypropylcellulose) (HPC)); 218 % of control (dose: 1.25 mg/kg/injection, schedule: Q01DX009 (ip), vehicle: distilled water + Tween-80); 165 % of control (dose: 2.0 mg/kg/injection, schedule: Q01DX009 (ip), vehicle: saline with Tween-80). The T/C by setting is: (dose: 2.5 mg/kg/injection, schedule: Q01DX009 (ip), vehicle: distilled water + Tween-80) 261 % of control; (dose: 4.0 mg/kg/injection, schedule: Q01DX009 (ip), vehicle: saline with Tween-80) 86 % of control; (dose: 5.0 mg/kg/injection, schedule: Q04DX003 (ip), vehicle: saline sonified) 109 % of control; (dose: 5.0 mg/kg/injection, schedule: Q04DX003 (ip), vehicle: saline with Tween-80) 186 % of control; (dose: 7.5 mg/kg/injection, schedule: Q04DX003 (ip), vehicle: saline sonified) 154 % of control.

For the compound `COC[N+](C)(C)c1ccc(/C=C/C=O)cc1`, the T/C (dose: 12.5 mg/kg/injection, schedule: Q01DX009 (ip), vehicle: saline) was 114 % of control; the T/C (dose: 25.0 mg/kg/injection, schedule: Q01DX009 (ip), vehicle: saline) was 109 % of control; the T/C under setting [7] is 118 % of control and 98 % of control.

On to `COC1/C=C/OC2(C)Oc3c(C)c(O)c4c(c3C2=O)C(=O)C(CO)=C(NC(=O)/C(C)=C\C=C\C(C)C(O)C(C)C(O)C(C)C(OC(C)=O)C1C)C4=O` (stereo not given), for which the T/C runs as follows: (dose: 50.0 mg/kg/injection, schedule: Q01DX009 (ip), vehicle: saline with Tween-80) 104 % of control; under setting [8], 99 % of control; under setting [9], 112 % of control.

Turning to `CC1(C)C=C(Cc2ccccc2)C(=O)c2ccccc21`, the T/C reads like this: under setting [8], 90 % of control; under setting [9], 100 % of control; (dose: 400.0 mg/kg/injection, schedule: Q01DX009 (ip), vehicle: saline with Tween-80) 95 % of control.

Regarding `Cc1cc2cc(CN3C(=O)c4ccccc4C3=O)ccc2[nH]1`, the T/C by setting is: (dose: 100.0 mg/kg/injection, schedule: Q01DX001 (ip), vehicle: Klucel (hydroxypropylcellulose) (HPC)) 100 % of control; (dose: 200.0 mg/kg/injection, schedule: Q01DX001 (ip), vehicle: Klucel (hydroxypropylcellulose) (HPC)) 93 % of control; (dose: 400.0 mg/kg/injection, schedule: Q01DX001 (ip), vehicle: Klucel (hydroxypropylcellulose) (HPC)) 93 % of control.

Regarding `CCOC(=O)C(C)c1ccccc1` (stereo not given), the T/C is 96 % of control under setting [7]; 105 % of control (dose: 100.0 mg/kg/injection, schedule: Q01DX009 (ip), vehicle: saline); 99 % of control (dose: 200.0 mg/kg/injection, schedule: Q01DX009 (ip), vehicle: saline).

Regarding `CC(C)=CCC/C(C)=C\C1OC(C)C(C)O1` (stereo not given), the T/C (dose: 50.0 mg/kg/injection, schedule: Q01DX005 (ip), vehicle: saline with Tween-80) was 104 % of control; the T/C (dose: 100.0 mg/kg/injection, schedule: Q01DX005 (ip), vehicle: saline with Tween-80) is 100 % of control; the T/C (dose: 200.0 mg/kg/injection, schedule: Q01DX005 (ip), vehicle: saline with Tween-80) is 107 % of control.

On to `Cc1ccc(NC(=O)Nc2cccnc2)cc1NC(=O)Nc1cccnc1`, for which the T/C reads like this: under setting [10], 102 % of control; under setting [11], 110 % of control; under setting [12], 100 % of control.

On to `COC(=O)/C(=C\C[C@@H]1CCCC[C@H]1O)CC[Se]c1ccccc1`, for which the T/C was 108 % of control (dose: 50.0 mg/kg/injection, schedule: Q01DX009 (ip), vehicle: distilled water + Tween-80 + alcohol); 103 % of control (dose: 100.0 mg/kg/injection, schedule: Q01DX009 (ip), vehicle: distilled water + Tween-80 + alcohol); 98 % of control (dose: 200.0 mg/kg/injection, schedule: Q01DX009 (ip), vehicle: distilled water + Tween-80 + alcohol).

`CCCCC1(CCCCCCCCC(O)CC(=O)OCC)OCCO1` (stereo not given): the T/C reads like this: (dose: 100.0 mg/kg/injection, schedule: Q04DX002 (ip), vehicle: Klucel (hydroxypropylcellulose) (HPC)) 104 % of control; (dose: 200.0 mg/kg/injection, schedule: Q04DX002 (ip), vehicle: Klucel (hydroxypropylcellulose) (HPC)) 100 % of control; (dose: 400.0 mg/kg/injection, schedule: Q04DX002 (ip), vehicle: Klucel (hydroxypropylcellulose) (HPC)) 96 % of control.

As for `CC1=Nc2nc(=NCCCN(C)C)nc3cccc(n23)N1`, the T/C (dose: 15.0 mg/kg/injection, schedule: Q01DX005 (ip), vehicle: saline with Tween-80) is 99 % of control; the T/C under setting [13] is 100 % of control; the T/C under setting [1] is 104 % of control and 97 % of control.

With `O=C1CC2(CCCC2)C(=O)N1c1ccc(O)c(CN2CCCCC2)c1`, the T/C was 99 % of control under setting [10], 104 % of control under setting [11] and 98 % of control under setting [12].

For `CNC(=O)OCc1snc(-c2ccccc2)c1COC(=O)NC`, the T/C is 99 % of control (dose: 12.5 mg/kg/injection, schedule: Q01DX005 (ip), vehicle: distilled water + Tween-80); 101 % of control (dose: 25.0 mg/kg/injection, schedule: Q01DX005 (ip), vehicle: distilled water + Tween-80); 99 % of control (dose: 50.0 mg/kg/injection, schedule: Q01DX005 (ip), vehicle: distilled water + Tween-80); 96 % of control (dose: 100.0 mg/kg/injection, schedule: Q01DX005 (ip), vehicle: distilled water + Tween-80); 108 % of control (dose: 200.0 mg/kg/injection, schedule: Q01DX005 (ip), vehicle: distilled water + Tween-80).

Take `COc1cc2cc3cc(-c4ccc(Cl)cc4)c(N4CCCCC4)nc3nc2cc1OC`: the T/C is 92 % of control (dose: 3.75 mg/kg/injection, schedule: Q01DX005 (ip), vehicle: saline with Tween-80); 87 % of control (dose: 7.5 mg/kg/injection, schedule: Q01DX005 (ip), vehicle: saline with Tween-80); 86 % of control under setting [13]; 91 % of control under setting [3].

On to `COC(=N)c1nnn(-c2ccccc2)n1`, for which the T/C was 97 % of control under setting [4], 97 % of control under setting [5] and 95 % of control under setting [6].

With `CC(SC(SC(C)C(=O)O)c1ccccc1)C(=O)O` (stereo not given), the T/C reads like this: (dose: 100.0 mg/kg/injection, schedule: Q01DX001 (ip), vehicle: other) 105 % of control; (dose: 200.0 mg/kg/injection, schedule: Q01DX001 (ip), vehicle: other) 107 % of control; (dose: 400.0 mg/kg/injection, schedule: Q01DX001 (ip), vehicle: other) 98 % of control.

Take `Cc1[nH]n(-c2ccc(S(=O)(=O)O)cc2)c(=O)c1N=Nc1ccccc1`: the T/C was 96 % of control under setting [1], 100 % of control under setting [2] and 90 % of control under setting [3].
